Consider 30 molecules from patent US20190071416A1, “COMPOUNDS FOR TREATMENT OF CANCER AND EPIGENETICS” (Agency For Science, Technology and Research, priority 2015, published 2019).

Molecules are shown by their SMILES.

This experiment deals with T1, SMYD3 (Homo sapiens, UniProt Q9H7B4).
T1 sequence (Q9H7B4 1-428): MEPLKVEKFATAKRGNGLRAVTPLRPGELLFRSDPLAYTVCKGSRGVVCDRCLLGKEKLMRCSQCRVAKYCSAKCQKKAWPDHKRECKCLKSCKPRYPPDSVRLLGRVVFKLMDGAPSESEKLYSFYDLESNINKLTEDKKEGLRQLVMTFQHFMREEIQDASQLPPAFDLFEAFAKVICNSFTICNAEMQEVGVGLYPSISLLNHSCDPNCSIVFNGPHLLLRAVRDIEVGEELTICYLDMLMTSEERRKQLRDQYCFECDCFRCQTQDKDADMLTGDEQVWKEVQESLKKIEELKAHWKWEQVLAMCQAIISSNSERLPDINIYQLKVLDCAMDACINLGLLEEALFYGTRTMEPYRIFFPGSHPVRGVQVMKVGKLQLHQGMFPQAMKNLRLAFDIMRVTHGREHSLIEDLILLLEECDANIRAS
Briefly: SMYD3 biochemical assay (MTase-Glo, MAP3K2 peptide substrate). Conditions: Table 3; MTase assay, MAP3K2 peptide substrate; read-out: IC50. As for the experimental part: A SMYD3 enzymatic assay was developed using Promega's Methyltransferase-Glo™ reagents. In the assay, SMYD3 catalyzes the methylation of the MAP3K2 peptide substrate by transferring a methyl group from SAM to MAP3K2 peptide and further converts the SAM to SAH. The SMYD3 methyltransferase activity is measured based on the amount of SAH produced from the reaction through the use of coupling enzymes that convert the SAH to ATP. The MTase-Glo detection solution then catalyzes the formation of light from ATP.
A final concentration of 1.0 μM and 10 μM SAM and MAP3K2 peptide were added and further incubated for 30 min at room temperature before adding the MTase Glo and detection reagent. Reaction signals were detected using microplate readers on luminescent mode (Safire Tecan). The IC50 was determined by non-linear regression, using GraphPad Prism version, 5.03.

Usually IC50 stands for the concentration that gives 50% inhibition. In the case of `CCCOC(=O)N1CCN(C(=O)c2ccc3c(Cl)cc(-c4ccc(N(C)C)cc4)nc3c2)C[C@H]1C` [B060, Propyl (R)-4-(4-chloro-2-(4-(dimethylamino)phenyl)quinoline-7-carbonyl)-2-methylpiperazine-1-carboxylate], the half-maximal inhibitory concentration (IC50) is 0.42 µM.

As for `CCCOC(=O)N1CCN(C(=O)c2ccc3c(Cl)c4c(nc3c2)CC(c2ncccc2C)CC4)C[C@@H]1C` (stereo partly drawn) [A107, Propyl (2S)-4-(9-chloro-6-(3-methylpyridin-2-yl)-5,6,7,8-tetrahydroacridine-3-carbonyl)-2-methylpiperazine-1-carboxylate], the IC50 came out at 0.38 µM. As to `CCCOC(=O)N1CCN(C(=O)c2ccc3c(Cl)cc(-c4cnn(C5COC5)c4)nc3c2)CC1` [B271, Propyl 4-(4-chloro-2-(1-(oxetan-3-yl)-1H-pyrazol-4-yl)quinoline-7-carbonyl)piperazine-1-carboxylate], the IC50 came to 0.034 µM.

As to `Cc1cc(C(=O)N2CCN(C(=O)c3ccc4c(Cl)c5c(nc4c3)CCCC5)[C@@H](C)C2)no1` [A083, (S)-(9-Chloro-5,6,7,8-tetrahydroacridin-3-yl)(2-methyl-4-(5-methylisoxazole-3-carbonyl)piperazin-1-yl)methanone], the IC50 was determined as 0.44 µM. The figure for `CCCOC(=O)N1CCN(C(=O)c2ccc3c(Cl)cc(-c4ccc(N)cc4)nc3c2)CC1` [B073, Propyl 4-(2-(4-aminophenyl)-4-chloroquinoline-7-carbonyl)piperazine-1-carboxylate] is 0.09 µM. `Cn1ccc(-c2cc(Cl)c3ccc(C(=O)N4CCN(C(=O)OCCF)CC4)cc3n2)c1` [B248, 2-Fluoroethyl 4-(4-chloro-2-(1-methyl-1H-pyrrol-3-yl)quinoline-7-carbonyl)piperazine-1-carboxylate]: the concentration for half-maximal inhibition (IC50) was 0.14 µM.

In the case of `CCCOC(=O)N1CCN(C(=O)c2ccc3c(Cl)c4c(nc3c2)CCCC4)CC1C(N)=O` (stereo not drawn) [A056, Propyl 2-carbamoyl-4-(9-chloro-5,6,7,8-tetrahydroacridine-3-carbonyl)piperazine-1-carboxylate], the IC50 was 1.7 µM.

In the case of `CCCOC(=O)N1CCN(C(=O)c2ccc3c(Cl)cc(-c4ccn(C)n4)nc3c2)CC1` [B168, Propyl 4-(4-chloro-2-(1-methyl-1H-pyrazol-3-yl)quinoline-7-carbonyl)piperazine-1-carboxylate], the IC50 amounted to 1.75 µM. `CCCOC(=O)N1CCN(C(=O)c2ccc3c(Cl)cc(-c4ccn(C)c4)nc3c2)[C@@H](C)C1` [B194, Propyl (S)-4-(4-chloro-2-(1-methyl-1H-pyrrol-3-yl)quinoline-7-carbonyl)-3-methylpiperazine-1-carboxylate]: the IC50 was found to be 0.13 µM. For the molecule `CCCOC(=O)N1CCN(C(=O)c2ccc3c(Cl)cc(-c4ccc5nc(C)sc5c4)nc3c2)CC1` [B208, Propyl 4-(4-chloro-2-(2-methylbenzo[d]thiazol-6-yl)quinoline-7-carbonyl)piperazine-1-carboxylate], the IC50 came out at 0.38 µM. On to `CCCOC(=O)N1CCN(C(=O)c2ccc3c(Cl)c(C)c(-c4cccc(N)c4)nc3c2)C[C@H]1C` [B056, Propyl (R)-4-(2-(3-aminophenyl)-4-chloro-3-methylquinoline-7-carbonyl)-2-methylpiperazine-1-carboxylate], for which the IC50 is 0.12 µM. In the case of `CCCOC(=O)N1CCN(C(=O)c2ccc3c(Cl)cc(-c4ccc(COCC5CC5)cc4)nc3c2)CC1` [B242, Propyl 4-(4-chloro-2-(4-((cyclopropylmethoxy)methyl)phenyl)quinoline-7-carbonyl)piperazine-1-carboxylate], the IC50 was 0.67 µM. Take `CNC(=O)c1ccc(-c2cc(Cl)c3ccc(C(=O)N4CCN(C(=O)OCC(C)C)CC4)cc3n2)cc1` [B245, Isobutyl 4-(4-chloro-2-(4-(methylcarbamoyl)phenyl)quinoline-7-carbonyl)piperazine-1-carboxylate]: the concentration for half-maximal inhibition (IC50) was 1.01 µM. Take `CC(C)(CN)c1ccc(-c2cc(Cl)c3ccc(C(=O)N4CCN(C(=O)c5cn(C6CC6)nn5)CC4)cc3n2)cc1` [D012, (2-(4-(1-Amino-2-methylpropan-2-yl)phenyl)-4-chloroquinolin-7-yl)(4-(1-cyclopropyl-1H-1,2,3-triazole-4-carbonyl)piperazin-1-yl)nethanone]: the IC50 was 0.1 µM.

As to `CCCCC(=O)N1CCN(C(=O)c2ccc3c(Cl)ccnc3c2)CC1` [B226, 1-(4-(4-chloroquinoline-7-carbonyl)piperazin-1-yl)pentan-1-one], the IC50 came to 7.9 µM. `CCCOC(=O)N1CCN(C(=O)c2ccc3c(Cl)cc(-c4cc(C)n(C)c4C)nc3c2)CC1` [B214, Propyl 4-(4-chloro-2-(1,2,5-trimethyl-1H-pyrrol-3-yl)quinoline-7-carbonyl)piperazine-1-carboxylate]: the IC50 stood at 0.12 µM. `CCCOC(=O)N1CCN(C(=O)c2ccc3c(Cl)cc(-c4ccc(C(N)=O)cc4)nc3c2)C[C@H]1C` [B063, Propyl (R)-4-(2-(4-carbamoylphenyl)-4-chloroquinoline-7-carbonyl)-2-methylpiperazine-1-carboxylate]: the IC50 was 0.08 µM.

In the case of `CCCOC(=O)N1CCN(C(=O)c2ccc3c(Cl)c4c(nc3c2)CC(c2ccnc(C#N)c2)CC4)[C@@H](C)C1` (stereo partly drawn) [A143, Propyl (3S)-4-(9-chloro-6-(2-cyanopyridin-4-yl)-5,6,7,8-tetrahydroacridine-3-carbonyl)-3-methylpiperazine-1-carboxylate], the IC50 was determined as 0.46 µM. In the case of `CCCOC(=O)N1CCN(C(=O)c2ccc3c(Cl)cc(-c4ccc(CN(C)C)cc4)nc3c2)CC1` [B110, Propyl 4-(4-chloro-2-(4-((dimethylamino)methyl)phenyl)quinoline-7-carbonyl)piperazine-1-carboxylate], the IC50 amounted to 0.16 µM. The figure for `CCCOC(=O)N1CCN(C(=O)c2ccc3c(Cl)c4c(nc3c2)CCCC4)C(C)C1` (stereo not drawn) [A031, Propyl 4-(9-chloro-5,6,7,8-tetrahydroacridine-3-carbonyl)-3-methylpiperazine-1-carboxylate] is 0.15 µM. `CCCOC(=O)N1CCN(C(=O)c2ccc3c(Cl)c4c(nc3c2)CC(c2ccccn2)CC4)CC1` (single isomer, unassigned) [A053 (Ent-1), Propyl (R/S)-4-(9-chloro-6-(pyridin-2-yl)-5,6,7,8-tetrahydroacridine-3-carbonyl)piperazine-1-carboxylate]: the IC50 was found to be 0.12 µM.

On to `CCCOC(=O)N1CCN(C(=O)c2ccc3c(Cl)cc(-c4ccc(OC)c(C#N)c4)nc3c2)C[C@H]1C` [B106, Propyl (R)-4-(4-chloro-2-(3-cyano-4-methoxyphenyl)quinoline-7-carbonyl)-2-methylpiperazine-1-carboxylate], for which the IC50 came to 0.56 µM.

Consider `CCCOC(=O)N1CCN(C(=O)c2ccc3c(Cl)cc(-c4cccc(C(=O)N(C)C)c4)nc3c2)CC1` [B102, Propyl 4-(4-chloro-2-(3-(dimethylcarbamoyl)phenyl)quinoline-7-carbonyl)piperazine-1-carboxylate], for which the IC50 turned out to be 0.53 µM.

Take `CCCOC(=O)N1CCN(C(=O)c2ccc3c(Cl)c4c(nc3c2)CC(c2cc(C)ccn2)CC4)C[C@H]1C` (stereo partly drawn) [A133, Propyl (2R)-4-(9-chloro-6-(4-methylpyridin-2-yl)-5,6,7,8-tetrahydroacridine-3-carbonyl)-2-methylpiperazine-1-carboxylate]: the IC50 stood at 0.12 µM.

Consider `CCCOC(=O)N1CCN(C(=O)c2ccc3c(Cl)cc(-c4ccc(N5CCN(C)CC5)cc4)nc3c2)C[C@H]1C` [B095, Propyl (R)-4-(4-chloro-2-(4-(4-methylpiperazin-1-yl)phenyl)quinoline-7-carbonyl)-2-methylpiperazine-1-carboxylate], for which the IC50 was determined as 0.056 µM. On to `CCCOC(=O)N1CCN(C(=O)c2ccc3c(Cl)c(C)c(-c4ccc(CN)cc4)nc3c2)CC1` [B093, Propyl 4-(2-(4-(aminomethyl)phenyl)-4-chloro-3-methylquinoline-7-carbonyl)piperazine-1-carboxylate], for which the half-maximal inhibitory concentration (IC50) was 0.042 µM.

In the case of `CCCOC(=O)N1CCN(C(=O)c2ccc3c(Cl)cc(-c4ccc(O)c(C)c4)nc3c2)[C@@H](C)C1` [B225, Propyl (S)-4-(4-chloro-2-(4-hydroxy-3-methylphenyl)quinoline-7-carbonyl)-3-methylpiperazine-1-carboxylate], the half-maximal inhibitory concentration (IC50) was determined as 0.23 µM.

On to `CCCOC(=O)N1CCN(C(=O)c2ccc3c(Cl)cc(-c4ccc(OC)c(CN(C)C)c4)nc3c2)CC1` [B104, Propyl 4-(4-chloro-2-(3-((dimethylamino)methyl)-4-methoxyphenyl)quinoline-7-carbonyl)piperazine-1-carboxylate], for which the IC50 was 0.12 µM. Turning to `CCCOC(=O)N1CCN(C(=O)c2ccc3c(Cl)c(C)c(-c4cccc(C(N)=O)c4)nc3c2)CC1` [B035, Propyl 4-(2-(3-carbamoylphenyl)-4-chloro-3-methylquinoline-7-carbonyl)piperazine-1-carboxylate], the IC50 turned out to be 1 µM. Turning to `CCCOC(=O)N1CCN(C(=O)c2ccc3c(Cl)cc(-c4cccc(C(C)O)c4)nc3c2)CC1` (stereo not drawn) [B158, Propyl 4-(4-chloro-2-(3-(1-hydroxyethyl)phenyl)quinoline-7-carbonyl)piperazine-1-carboxylate], the IC50 came to 0.084 µM.
